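1) Cells in 96-well plates. 2) Compound, 48 h, 5 concentrations. 3) Linear interpolation between surrounding doses. 4) Unreached endpoint = highest concentration. GI50: concentration for 50% inhibition of growth.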 Active and inactive are the calls of the source. Rule as the data show it: active = GI50 up to about 1.1 µM and inactive = higher.
What was measured:
Experiment in all cases: NCI tumour cell line growth inhibition, 48 h
OVCAR-8 = test system: OVCAR-8
HOP-92 = test system: HOP-92
786-0 = test system: 786-0
SNB-19 = test system: SNB-19
NCI-H460 = test system: NCI-H460
RPMI-8226 = test system: RPMI-8226
MDA-MB-231 = test system: MDA-MB-231
SK-MEL-5 = test system: SK-MEL-5
MDA-MB-435 = test system: MDA-MB-435
Malme-3M = test system: Malme-3M
A498 = test system: A498
LOX IMVI = test system: LOX IMVI
NCI-H522 = test system: NCI-H522
CCRF-CEM = test system: CCRF-CEM
SW-620 = test system: SW-620
COLO 205 = test system: COLO 205
HOP-62 = test system: HOP-62
UACC-257 = test system: UACC-257
HCC 2998 = test system: HCC 2998
EKVX = test system: EKVX
HT-29 = test system: HT-29
SF-268 = test system: SF-268
HCT-15 = test system: HCT-15
UACC-62 = test system: UACC-62
OVCAR-4 = test system: OVCAR-4
NCI-H23 = test system: NCI-H23
ACHN = test system: ACHN
IGROV-1 = test system: IGROV-1
T47D = test system: T47D
NCI-H226 = test system: NCI-H226
SNB-75 = test system: SNB-75
SK-MEL-28 = test system: SK-MEL-28
NCI/ADR-RES = test system: NCI/ADR-RES
TK-10 = test system: TK-10
KM12 = test system: KM12
SF-295 = test system: SF-295
A549 = test system: A549
UO-31 = test system: UO-31
K562 = test system: K562
DU-145 = test system: DU-145
Hs-578T = test system: Hs-578T
SR = test system: SR
HL-60 = test system: HL-60
SN12C = test system: SN12C
MOLT-4 = test system: MOLT-4
PC-3 = test system: PC-3
OVCAR-3 = test system: OVCAR-3
U-251 = test system: U-251
RXF 393 = test system: RXF 393
SF-539 = test system: SF-539
HCT-116 = test system: HCT-116
BT-549 = test system: BT-549
OVCAR-5 = test system: OVCAR-5
MCF7 = test system: MCF7
SK-MEL-2 = test system: SK-MEL-2
M14 = test system: M14
MDA-N = test system: MDA-N
CAKI-1 = test system: CAKI-1
SK-OV-3 = test system: SK-OV-3

## C/C(Nc1ccc(F)cc1)=C1/CCOC1=O
OVCAR-8
  GI50: 17.3 µM (inactive)
HOP-92
  GI50: > 100 µM (inactive)
786-0
  GI50: > 100 µM (inactive)
SNB-19
  GI50: > 100 µM (inactive)
NCI-H460
  GI50: > 100 µM (inactive)
RPMI-8226
  GI50: > 100 µM (inactive)
MDA-MB-231
  GI50: > 100 µM (inactive)
SK-MEL-5
  GI50: 12.9 µM (inactive)
MDA-MB-435
  GI50: 2.92 µM (inactive)
Malme-3M
  GI50: > 100 µM (inactive)
A498
  GI50: > 100 µM (inactive)
LOX IMVI
  GI50: 2.25 µM (inactive)
NCI-H522
  GI50: > 100 µM (inactive)
CCRF-CEM
  GI50: > 100 µM (inactive)
SW-620
  GI50: > 100 µM (inactive)
COLO 205
  GI50: 4.7 µM (inactive)
HOP-62
  GI50: > 100 µM (inactive)
UACC-257
  GI50: > 100 µM (inactive)
HCC 2998
  GI50: 25.6 µM (inactive)
EKVX
  GI50: > 100 µM (inactive)
HT-29
  GI50: > 100 µM (inactive)
SF-268
  GI50: > 100 µM (inactive)
HCT-15
  GI50: > 100 µM
UACC-62
  GI50: 0.277 µM (active)
OVCAR-4
  GI50: > 100 µM (inactive)
NCI-H23
  GI50: > 100 µM (inactive)
ACHN
  GI50: 1.8 µM (inactive)
IGROV-1
  GI50: > 100 µM (inactive)
T47D
  GI50: 63.2 µM (inactive)
NCI-H226
  GI50: 91.6 µM (inactive)
SNB-75
  GI50: > 100 µM (inactive)
SK-MEL-28
  GI50: > 100 µM (inactive)
NCI/ADR-RES
  GI50: > 100 µM (inactive)
TK-10
  GI50: > 100 µM (inactive)
KM12
  GI50: 1.38 µM (inactive)
SF-295
  GI50: 16.5 µM (inactive)
A549
  GI50: 90.4 µM (inactive)
UO-31
  GI50: 92.3 µM (inactive)
K562
  GI50: 62.8 µM (inactive)
DU-145
  GI50: > 100 µM (inactive)
Hs-578T
  GI50: > 100 µM (inactive)
SR
  GI50: > 100 µM (inactive)
HL-60
  GI50: 12.4 µM (inactive)
SN12C
  GI50: > 100 µM (inactive)
MOLT-4
  GI50: 24.5 µM (inactive)
PC-3
  GI50: 46.5 µM (inactive)
OVCAR-3
  GI50: > 100 µM (inactive)
U-251
  GI50: > 100 µM (inactive)
RXF 393
  GI50: 4.73 µM (inactive)
SF-539
  GI50: 77.3 µM (inactive)
HCT-116
  GI50: > 100 µM (inactive)
BT-549
  GI50: > 100 µM (inactive)

## CCOC(=O)c1cn(-c2ccc([N+](=O)[O-])cc2)c(=S)n2c1nc1ccccc12
OVCAR-5
  GI50: > 100 µM (inactive)
OVCAR-8
  GI50: 35.5 µM (inactive)
HOP-92
  GI50: 18.5 µM (inactive)
786-0
  GI50: 30.1 µM (inactive)
SNB-19
  GI50: 72.6 µM (inactive)
NCI-H460
  GI50: 51.5 µM (inactive)
RPMI-8226
  GI50: 24.6 µM (inactive)
MDA-MB-231
  GI50: 30.9 µM (inactive)
SK-MEL-5
  GI50: 21.9 µM (inactive)
MDA-MB-435
  GI50: 41.8 µM (inactive)
A498
  GI50: 20.6 µM (inactive)
LOX IMVI
  GI50: 56.5 µM (inactive)
CCRF-CEM
  GI50: 9.84 µM (inactive)
SW-620
  GI50: 47 µM (inactive)
COLO 205
  GI50: 23.2 µM (inactive)
HOP-62
  GI50: 63.2 µM (inactive)
UACC-257
  GI50: 30.7 µM (inactive)
HCC 2998
  GI50: 23.1 µM (inactive)
EKVX
  GI50: 53.7 µM (inactive)
HT-29
  GI50: 26.4 µM (inactive)
HCT-15
  GI50: 35.4 µM
UACC-62
  GI50: 31.8 µM (inactive)
OVCAR-4
  GI50: 21.6 µM (inactive)
MCF7
  GI50: 33.2 µM (inactive)
SK-MEL-2
  GI50: 17.8 µM (inactive)
M14
  GI50: 61 µM (inactive)
MDA-N
  GI50: 39.7 µM (inactive)
NCI-H23
  GI50: 34.1 µM (inactive)
ACHN
  GI50: 32 µM (inactive)
IGROV-1
  GI50: 54.1 µM (inactive)
T47D
  GI50: 58.6 µM (inactive)
NCI-H226
  GI50: 37.2 µM (inactive)
SNB-75
  GI50: > 100 µM (inactive)
SK-MEL-28
  GI50: 49.9 µM (inactive)
NCI/ADR-RES
  GI50: 20.8 µM (inactive)
KM12
  GI50: 30.1 µM (inactive)
SF-295
  GI50: 45.6 µM (inactive)
A549
  GI50: 36.7 µM (inactive)
UO-31
  GI50: 1.83 µM (inactive)
K562
  GI50: 46.5 µM (inactive)
DU-145
  GI50: 81.7 µM (inactive)
CAKI-1
  GI50: 42.9 µM (inactive)
SR
  GI50: 39.5 µM (inactive)
SN12C
  GI50: 50.1 µM (inactive)
MOLT-4
  GI50: 28 µM (inactive)
PC-3
  GI50: 13.6 µM (inactive)
OVCAR-3
  GI50: 53.7 µM (inactive)
U-251
  GI50: 36.2 µM (inactive)
RXF 393
  GI50: 63.5 µM (inactive)
SF-539
  GI50: 32 µM (inactive)
HCT-116
  GI50: 31.1 µM (inactive)
BT-549
  GI50: 35 µM (inactive)

## COc1cccc2c1OC(c1ccc(C#N)cc1)C([N+](=O)[O-])=C2 (centres undefined)
OVCAR-5
  GI50: 1.95 µM (inactive)
OVCAR-8
  GI50: 1.25 µM (inactive)
HOP-92
  GI50: 1.62 µM (inactive)
786-0
  GI50: 0.482 µM (active)
SNB-19
  GI50: 6.46 µM (inactive)
NCI-H460
  GI50: 2.22 µM (inactive)
MDA-MB-231
  GI50: 1.56 µM (inactive)
SK-MEL-5
  GI50: 1.53 µM (inactive)
MDA-MB-435
  GI50: 1.39 µM (inactive)
Malme-3M
  GI50: 1.61 µM (inactive)
A498
  GI50: 1.84 µM (inactive)
LOX IMVI
  GI50: 1.91 µM (inactive)
NCI-H522
  GI50: 0.214 µM (active)
CCRF-CEM
  GI50: 1.58 µM (inactive)
SW-620
  GI50: 1.42 µM (inactive)
COLO 205
  GI50: 1.74 µM (inactive)
HOP-62
  GI50: 3.21 µM (inactive)
UACC-257
  GI50: 1.38 µM (inactive)
HCC 2998
  GI50: 1.76 µM (inactive)
EKVX
  GI50: 6.24 µM (inactive)
HT-29
  GI50: 1.72 µM (inactive)
SF-268
  GI50: 4.12 µM (inactive)
HCT-15
  GI50: 1.7 µM
UACC-62
  GI50: 1.6 µM (inactive)
OVCAR-4
  GI50: 1.68 µM (inactive)
MCF7
  GI50: 1.5 µM (inactive)
SK-MEL-2
  GI50: 2.01 µM (inactive)
M14
  GI50: 1.78 µM (inactive)
MDA-N
  GI50: 1.52 µM (inactive)
NCI-H23
  GI50: 1.71 µM (inactive)
SK-OV-3
  GI50: 3.23 µM (inactive)
ACHN
  GI50: 1.77 µM (inactive)
IGROV-1
  GI50: 1.92 µM (inactive)
NCI-H226
  GI50: 2.98 µM (inactive)
SNB-75
  GI50: 2.47 µM (inactive)
SK-MEL-28
  GI50: 2.28 µM (inactive)
NCI/ADR-RES
  GI50: > 100 µM (inactive)
TK-10
  GI50: 3.11 µM (inactive)
SF-295
  GI50: 6.14 µM (inactive)
A549
  GI50: 2.56 µM (inactive)
UO-31
  GI50: 1.64 µM (inactive)
K562
  GI50: 1.21 µM (inactive)
DU-145
  GI50: 3.12 µM (inactive)
Hs-578T
  GI50: 1.78 µM (inactive)
CAKI-1
  GI50: 0.908 µM (active)
SR
  GI50: 0.778 µM (active)
HL-60
  GI50: 1.41 µM (inactive)
SN12C
  GI50: 2.04 µM (inactive)
PC-3
  GI50: 1.88 µM (inactive)
OVCAR-3
  GI50: 2.02 µM (inactive)
U-251
  GI50: 1.86 µM (inactive)
RXF 393
  GI50: 1.58 µM (inactive)
SF-539
  GI50: 1.91 µM (inactive)
HCT-116
  GI50: 1.48 µM (inactive)
BT-549
  GI50: 1.49 µM (inactive)

— ChEMBL document CHEMBL1201862, “PubChem BioAssay data set” (2004)
